The record followed here is patent US20130196000A1, “COMBINATION THERAPY INCLUDING ISOPHO[…], ANALOGS, OR SALTS THEREOF” (ZIOPHARM ONCOLOGY, INC., priority 2012, published 2013).

Molecules are shown by their SMILES.

A short description of this data set: Multicenter phase Ib open-label dose-escalation study of IPM-tris plus carboplatin/etoposide (PaCE): safety, DLT and MTD. The class given is in vivo, human. The procedure: A multicenter phase I, open-label, dose-escalation study assessing the safety and efficacy of IPM-tris in combination with carboplatin (C) and etoposide (E) (PaCE regimen) in SCLC and in other cancers in which C+E is considered appropriate was conducted. Tumor responses were assessed by RECIST 1.1 and relevant tumor markers.
To be eligible, each subject met each of the following criteria: (i) age >18 years; (ii) subject with documentation of a malignancy scheduled to receive etoposide and carboplatin therapy (including, but not limited to testicular cancer, thymoma, ovarian cancer, osteosarcoma, non-small cell lung cancer, and small cell lung cancer); (iii) ECOG Performance Status of 0 or 1; (iv) adequate bone marrow, liver, and renal function, as assessed by the following laboratory requirements conducted within 14 days prior to dosing; and (v) subjects for whom there is no curative standard therapy.
IPM tris(hydroxymethyl)methylammonium salt (IPM-tris) was given by intravenous (IV) infusion over approximately 30 minutes on days 1, 2, and 3 of each 21 day cycle. Each IPM-tris infusion to a subject was completed within 1 hour (and not more than 90 minutes) of dose preparation in the IV bag. Etoposide was given by IV infusion over approximately 60 minutes on days 1, 2, and 3 of each 21 day cycle. Carboplatin was given by IV infusion over approximately 30 minutes on day 1 of each 21 day cycle.
Each vial of IPM-tris was reconstituted with 14.6% sodium chloride for Injection, to a final concentration of 50.0 mg per mL. If the 14.6% sodium chloride diluent was not available, sites used 5.0%, 5.7%, 8.5%, or 0.9% sodium chloride for injection as the reconstitution diluent according to the same reconstitution instructions. Other standard sodium chloride solutions commercially available in other countries can be used to reconstituted IPM-tris. The IV infusion of IPM-tris was completed within 2.5 hours of reconstitution in the vial.
The doses of IPM-tris, etoposide, and carboplatin for each subject were calculated by the pharmacist based on the dose level and the subject's body surface area (BSA) on the first day of each cycle. BSA was calculated using their Institutional guidelines for calculating BSA or, the calculation for BSA by the Mosteller formula was used (note: SQRT=square root): […]
The maximum tolerable dose (MTD) of IPM-tris when administered in combination with etoposide and carboplatin at fixed doses (90 mg/m^2 and AUC 4, respectively) was determined An additional dose cohort was also evaluated using an escalated dose level of etoposide (100 mg/m^2) in combination with the IPM-tris MTD and carboplatin (AUC 4). Once the recommended doses were determined, this combination regimen was further studied in subjects with small cell lung cancer.

Turning to `NC(CO)(CO)CO.O=P(O)(NCCCl)NCCCl` [IPM-tris, IPM tris(hydroxymethyl)methylammonium salt], the “patients with dose limiting toxicity (neutropenic fever)” value (at 150 mg/m^2 of IPM-tris) is recorded as “one”. Also, the “maximum tolerated dose of IPM-tris” value was “**Based on dose escalation cohorts completed prior to Amendment 6, the maximum tolerated dose of IPM-tris was determined to be 130 mg/m^2 when administered in combination with etoposide 90 mg/m^2 and carboplatin AUC 4 (Cohort 2)” (in combination with etoposide 90 mg/m^2 and carboplatin AUC 4 (Cohort 2), IV days 1, 2, 3 of 21 day cycle); 130 mg/m^2 (in combination with etoposide 100 mg/m^2 and carboplatin AUC 4). Also, where the note is “in combination with etoposide and carboplatin”, the “IPM-tris dosage found to result in DLT” value worked out at 150 mg/m^2/day.
